The record followed here is US8889712B2, “IAP antagonists” (Bristol-Myers Squibb Company, priority 2012, dated 2014).

The target in assay [1] is T1, XIAP BIR2-3 (Homo sapiens, UniProt P98170, C202A/C213G).
T1 construct: His-BIR2-3 (125-356, C202A/C213G, XIAP)
Nature of the assay: XIAP-BIR2-3 dimeric SMAC Peptide Homogeneous Time Resolved Fluorescence (HTRF) Assay. Format: binding. The conditions noted are these: 0.5 nM N-His-BIR2-3 (125-356, C202A/C213G, XIAP), 20 nM fluorescein labeled dimeric SMAC peptide; HTRF signal; read-out: XIAP BIR2-3 IC50. The procedure:
B. […] Assays were performed in black, flat-bottom, 384-well plates. […] Compounds were dissolved at 3 mM in dimethylsulfoxide (DMSO) and evaluated at eleven serially diluted concentrations. IC50 and Ki values were derived by non-linear regression analysis.

Assay [2] addresses T2, XIAP BIR3 (Homo sapiens, UniProt P98170).
T2 construct: His-BIR3 (241-356, XIAP)
Nature of the assay: XIAP-BIR3/SMAC Homogeneous Time Resolved Fluorescence (HTRF) Assay. Format: binding. The conditions noted are these: 1 nM N-His-BIR3 (241-356, XIAP), 5 nM fluorescein labeled SMAC peptide; HTRF signal; read-out: XIAP BIR3 IC50. The procedure, abridged: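 Competition HTRF between XIAP-BIR3 and SMAC; reaction 60 min at room temperature, then anti-6×His-terbium Fab detection for a further 30 min.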
For orientation: In TR-FRET formats the signal depends on donor and acceptor labels being close together.

T2 sequence (P98170 241-356): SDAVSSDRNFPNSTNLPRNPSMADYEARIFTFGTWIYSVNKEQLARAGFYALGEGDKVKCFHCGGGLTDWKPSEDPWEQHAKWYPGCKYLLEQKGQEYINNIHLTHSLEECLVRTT
T1 sequence (P98170 125-356 C202A/C213G): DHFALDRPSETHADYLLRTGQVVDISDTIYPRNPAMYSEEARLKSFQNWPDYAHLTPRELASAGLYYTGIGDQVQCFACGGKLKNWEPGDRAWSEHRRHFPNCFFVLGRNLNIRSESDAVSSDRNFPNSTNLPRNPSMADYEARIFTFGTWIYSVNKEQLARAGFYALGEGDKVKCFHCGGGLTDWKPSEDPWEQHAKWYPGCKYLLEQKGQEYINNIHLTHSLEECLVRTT

Broadly, the IC50 is the concentration at which inhibition is half-maximal. For the molecule `CN[C@@H](C)C(=O)N[C@H](C(=O)N1C[C@@H](c2ccc3c(c2)CN(C(=O)[C@@H](NC(=O)[C@H](C)NC)C(C)(C)SCC(=O)NCCO)[C@H](C(=O)N[C@@H]2CCCc4ccccc42)C3)C[C@H]1C(=O)N[C@@H]1CCCc2ccccc21)C(C)(C)C` [Example 29, (S)-7-((3R,5S)-1-((S)-3,3-Dimethyl-2-((S)-2-(methylamino)propanamido)butanoyl)-5-(((R)-1,2,3,4-tetrahydronaphthalen-1-yl)carbamoyl)pyrrolidin-3-yl)-2-((R)-3-((2-((2-hydroxyethyl)amino)-2-oxoethyl)thio)-3-methyl-2-((S)-2-(methylamino)propanamido)butanoyl)-N—((R)-1,2,3,4-tetrahydronaphthalen-1-yl)-1,2,3,4-tetrahydroisoquinoline-3-carboxamide], the IC50 in assay [1] is 0.8 nM; in assay [2] it was 11.7 nM.
In the same order, the values of `CN[C@@H](C)C(=O)N[C@H](C(=O)N1C[C@@H](c2ccc3c(c2)CN(C(=O)[C@@H](NC(=O)[C@H](C)NC)C(C)(C)SCC(=O)N(C)C)[C@H](C(=O)N[C@@H]2CCCc4ccccc42)C3)C[C@H]1C(=O)N[C@@H]1CCCc2ccccc21)C(C)(C)C` [Example 30, (S)-7-((3R,5S)-1-((S)-3,3-Dimethyl-2-((S)-2-(methylamino)propanamido)butanoyl)-5-(((R)-1,2,3,4-tetrahydronaphthalen-1-yl)carbamoyl)pyrrolidin-3-yl)-2-((R)-3-((2-(dimethylamino)-2-oxoethyl)thio)-3-methyl-2-((S)-2-(methylamino)propanamido)butanoyl)-N-((R)-1,2,3,4-tetrahydronaphthalen-1-yl)-1,2,3,4-tetrahydroisoquinoline-3-carboxamide] are 5.7 nM and 3.9 nM.
On to `CN[C@@H](C)C(=O)N[C@H](C(=O)N1C[C@@H](c2ccc3c(c2)CN(C(=O)[C@@H](NC(=O)[C@H](C)NC)C(C)(C)SCC(=O)NC(CO)CO)[C@H](C(=O)N[C@@H]2CCCc4ccccc42)C3)C[C@H]1C(=O)N[C@@H]1CCCc2ccccc21)C(C)(C)C` [Example 31, (S)-2-((R)-3-((2-((1,3-Dihydroxypropan-2-yl)amino)-2-oxoethyl)thio)-3-methyl-2-((S)-2-(methylamino)propanamido)butanoyl)-7-((3R,5S)-1-((S)-3,3-dimethyl-2-((S)-2-(methylamino)propanamido)butanoyl)-5-(((R)-1,2,3,4-tetrahydronaphthalen-1-yl)carbamoyl)pyrrolidin-3-yl)-N-((R)-1,2,3,4-tetrahydronaphthalen-1-yl)-1,2,3,4-tetrahydroisoquinoline-3-carboxamide], for which the IC50 in assay [1] is 1.2 nM; in assay [2], 13.8 nM.
Regarding `CN[C@@H](C)C(=O)N[C@H](C(=O)N1CC(c2ccc3c(c2)CN(C(=O)[C@@H](NC(=O)[C@H](C)NC)C(C)(C)SCC(=O)O)[C@H](C(=O)NC2CCCc4ccccc42)C3)C[C@H]1C(=O)NC1CCCc2ccccc21)C(C)(C)C` (stereo partly drawn) [Example 32, 2-(((R)-4-((S)-7-((3R,5S)-1-((S)-3,3-Dimethyl-2-((S)-2-(methylamino)propanamido)butanoyl)-5-(((R)-1,2,3,4-tetrahydronaphthalen-1-yl)carbamoyl)pyrrolidin-3-yl)-3-(((R)-1,2,3,4-tetrahydronaphthalen-1-yl)carbamoyl)-3,4-dihydroisoquinolin-2(1H)-yl)-2-methyl-3-((S)-2-(methylamino)propanamido)-4-oxobutan-2-yl)thio)acetic acid, 2TFA], the values for the IC50 in assay [1] and in assay [2] were 1.9 nM and 8.7 nM, respectively.
In the same order, the values of `CN[C@@H](C)C(=O)N[C@H](C(=O)N1C[C@@H](c2ccc3c(c2)CN(C(=O)[C@@H](NC(=O)[C@H](C)NC)C(C)(C)C)[C@H](C(=O)N[C@@H]2CCOc4ccccc42)C3)C[C@H]1C(=O)N[C@@H]1CCCc2ccccc21)C(C)(C)C` [Example 33, (S)—N—((R)—Chroman-4-yl)-2-((S)-3,3-dimethyl-2-((S)-2-(methylamino)propanamido)butanoyl)-7-((3R,5S)-1-((S)-3,3-dimethyl-2-((S)-2-(methylamino)propanamido)butanoyl)-5-(((R)-1,2,3,4-tetrahydronaphthalen-1-yl)carbamoyl)pyrrolidin-3-yl)-1,2,3,4-tetrahydroisoquinoline-3-carboxamide] are 1.7 nM and 1.8 nM.
The like results for `CN[C@@H](C)C(=O)N[C@H](C(=O)N1Cc2cc([C@H]3C[C@@H](C(=O)N[C@@H]4CCCc5ccccc54)N(C(=O)[C@@H](NC(=O)[C@H](C)NC)C(C)(C)C)C3)ccc2C[C@H]1C(=O)N[C@H](CO)Cc1ccccc1)C(C)(C)C` [Example 34, (S)-2-((S)-3,3-Dimethyl-2-((S)-2-(methylamino)propanamido)butanoyl)-7-((3R,5S)-1-((S)-3,3-dimethyl-2-((S)-2-(methylamino)propanamido)butanoyl)-5-(((R)-1,2,3,4-tetrahydronaphthalen-1-yl)carbamoyl)pyrrolidin-3-yl)-N-((S)-1-hydroxy-3-phenylpropan-2-yl)-1,2,3,4-tetrahydroisoquinoline-3-carboxamide] were, in that order, 7 nM and 4.8 nM.
For `CN[C@@H](C)C(=O)N[C@H](C(=O)N1Cc2cc([C@H]3C[C@@H](C(=O)N[C@@H]4CCCc5ccccc54)N(C(=O)[C@@H](NC(=O)[C@H](C)NC)C(C)(C)C)C3)ccc2C[C@H]1C(=O)N[C@H](CO)c1ccccc1F)C(C)(C)C` [Example 35, (S)-2-((S)-3,3-Dimethyl-2-((S)-2-(methylamino)propanamido)butanoyl)-7-((3R,5S)-1-((S)-3,3-dimethyl-2-((S)-2-(methylamino)propanamido)butanoyl)-5-(((R)-1,2,3,4-tetrahydronaphthalen-1-yl)carbamoyl)pyrrolidin-3-yl)-N-((S)-1-(2-fluorophenyl)-2-hydroxyethyl)-1,2,3,4-tetrahydroisoquinoline-3-carboxamide], the IC50 is 1.3 nM in assay [1] and 2.5 nM in assay [2].
On to `CN[C@@H](C)C(=O)N[C@H](C(=O)N1Cc2cc([C@H]3C[C@@H](C(=O)N[C@@H]4CCCc5ccccc54)N(C(=O)[C@@H](NC(=O)[C@H](C)NC)C(C)(C)C)C3)ccc2C[C@H]1C(=O)N[C@@H](CO)c1ccccc1F)C(C)(C)C` [Example 36, (S)-2-((S)-3,3-Dimethyl-2-((S)-2-(methylamino)propanamido)butanoyl)-7-((3R,5S)-1-((S)-3,3-dimethyl-2-((S)-2-(methylamino)propanamido)butanoyl)-5-(((R)-1,2,3,4-tetrahydronaphthalen-1-yl)carbamoyl)pyrrolidin-3-yl)-N-((R)-1-(2-fluorophenyl)-2-hydroxyethyl)-1,2,3,4-tetrahydroisoquinoline-3-carboxamide], for which the IC50 in assay [1] was determined as 1.7 nM; in assay [2], 3.3 nM.
The like results for `CN[C@@H](C)C(=O)N[C@H](C(=O)N1Cc2cc([C@H]3C[C@@H](C(=O)N[C@@H]4CCCc5ccccc54)N(C(=O)[C@@H](NC(=O)[C@H](C)NC)C(C)(C)C)C3)ccc2C[C@H]1C(=O)N[C@@H]1CCCc2cc(OC)ccc21)C(C)(C)C` [Example 37, (S)-2-((S)-3,3-Dimethyl-2-((S)-2-(methylamino)propanamido)butanoyl)-7-((3R,5S)-1-((S)-3,3-dimethyl-2-((S)-2-(methylamino)propanamido)butanoyl)-5-(((R)-1,2,3,4-tetrahydronaphthalen-1-yl)carbamoyl)pyrrolidin-3-yl)-N-((R)-6-methoxy-1,2,3,4-tetrahydronaphthalen-1-yl)-1,2,3,4-tetrahydroisoquinoline-3-carboxamide] were, in that order, 1.8 nM and 2.9 nM.
With `CN[C@@H](C)C(=O)N[C@H](C(=O)N1Cc2cc([C@H]3C[C@@H](C(=O)N[C@@H]4CCCc5ccccc54)N(C(=O)[C@@H](NC(=O)[C@H](C)NC)C(C)(C)C)C3)ccc2C[C@H]1C(=O)Nc1cc(C)nn1-c1ccccc1)C(C)(C)C` [Example 38, (S)-2-((S)-3,3-Dimethyl-2-((S)-2-(methylamino)propanamido)butanoyl)-7-((3R,5S)-1-((S)-3,3-dimethyl-2-((S)-2-(methylamino)propanamido)butanoyl)-5-(((R)-1,2,3,4-tetrahydronaphthalen-1-yl)carbamoyl)pyrrolidin-3-yl)-N-(3-methyl-1-phenyl-1H-pyrazol-5-yl)-1,2,3,4-tetrahydroisoquinoline-3-carboxamide], the 50% inhibitory concentration (IC50) in assay [1] came to 1.8 nM; in assay [2], 3.2 nM.
The like results for `CN[C@@H](C)C(=O)N[C@H](C(=O)N1Cc2cc([C@H]3C[C@@H](C(=O)N[C@@H]4CCCc5ccccc54)N(C(=O)[C@@H](NC(=O)[C@H](C)NC)C(C)(C)C)C3)ccc2C[C@H]1C(=O)N[C@H](COC)Cc1ccccc1)C(C)(C)C` [Example 39, (S)-2-((S)-3,3-Dimethyl-2-((S)-2-(methylamino)propanamido)butanoyl)-7-((3R,5S)-1-((S)-3,3-dimethyl-2-((S)-2-(methylamino)propanamido)butanoyl)-5-(((R)-1,2,3,4-tetrahydronaphthalen-1-yl)carbamoyl)pyrrolidin-3-yl)-N-((S)-1-methoxy-3-phenylpropan-2-yl)-1,2,3,4-tetrahydroisoquinoline-3-carboxamide] were, in that order, 5.6 nM and 7.2 nM.
